Measurements taken from a melting point compilation (Tetko et al.; mined from patent text by program, amines drawn as free bases though some values may be those of a salt).

Structure (SMILES) | melting point
CCSc1ccc(C(=O)NCc2ccc3c(c2)C(=O)N(C2CCC(=O)NC2=O)C3=O)nn1 (stereo not given) | 205 to 207 °C
COc1cc(C=O)ccc1OCC(=O)NCCO[N+](=O)[O-] | 117 to 120 °C
Cc1ncnn1-c1ccc(N)cc1 | 145 °C
CNC(=O)C1OC1C(=O)c1ccc(Cl)cc1 (stereo not given) | 160 to 161 °C
Nc1ccc(Oc2ccc(S(=O)(=O)c3ccc(Oc4ccc(N)c(O)c4)cc3)cc2)cc1O | 228 to 231 °C
CC(C)(C)[C@H]1CC[C@H](Nc2ncc(CCc3cccnc3)c3ccccc23)CC1 | 124 to 125 °C
Cc1[nH]c2ccccc2c1C1=C(Cl)C(=O)C=C(Cl)C1=O | 158 to 159 °C
CC(C)[N+]([O-])=Cc1cccc(N)c1 | 103 to 106 °C
CCCCOCCOc1ccc(-c2ccc3c(c2)C=C(C(=O)O)CCN3c2ccc(S(=O)(=O)N(C)C)cc2)cc1 | 236 to 238 °C
CCN(C)c1ccc2c(c1)CN(c1cccc(Br)c1COC(C)=O)C2=O | 97 to 99 °C
COC(=O)C(c1ccc(Cl)cc1)c1c2ccccc2nc2ccccc12 (stereo not given) | 192 to 193 °C
CS(=O)(=O)c1ccc(Oc2ccc(Oc3ccccc3)cc2)nc1 | 136 to 138 °C
Cc1cccc2[nH]c(=O)c(=O)[nH]c12 | 325 °C
CN(C)C(=O)c1cnn(-c2ccccc2)c1Br | 79 to 81 °C
COc1ccc(C)cc1NC(=O)Nc1ccc(N2CCN(C(=O)Nc3ccc(N)cc3C(F)(F)F)CC2)cc1 | 244 to 246 °C
Cc1cccc(NC(=O)NC2CC(c3ccccc3)c3ccccc3N(CC(=O)NC(C)(C)C)C2=O)c1 (stereo not given) | 263 to 266 °C
CC(C)(C#N)c1cc(CO)cc(C(C)(C)C#N)c1 | 151 to 153 °C
C#CCn1c(=O)c2ccccc2c(=O)c2ccccc21 | 117 to 118 °C
CC(Cc1cc(-c2ccccc2)nc2ccccc12)C(=O)N(C)C1CCCCC1 (stereo not given) | 160 °C
O=c1[nH]cnc2c1cnn2CC(O)c1ccccc1 (stereo not given) | 270 to 271 °C
Nc1ncnc2c1c(-c1ccc(Oc3ccccc3)cc1)cn2C1CCC(=O)CC1 | 252 to 254 °C
CN(C)CCc1cn(S(=O)(=O)c2ccccc2)c2ccc(O)cc12 | 185 to 188 °C
COc1nc(OC)nc(N(C)C(=O)Oc2ccccc2)n1 | 90 °C
CN1C(=O)C(=O)N(Cc2ccccc2)CC1(CCO)c1ccc(Cl)c(Cl)c1 (stereo not given) | 198 °C
NC(=O)CCSSCCC(N)=O | 100 to 101 °C

Structure (SMILES) | melting point
CCOc1nn(-c2cc(C(F)(F)F)ccn2)cc1CCCO | 73 to 74 °C
CCCCOCC(O)COc1cc(C)c(OCC(O)COCCCC)cc1C (stereo not given) | < 30 °C
Cc1cc(Nc2ccnc(Nc3ccc(S(=O)(=O)N(C)C4CCN(Cc5cccn5C)CC4)cc3)n2)ccc1F | 159 to 160 °C
COc1cc(C)c(C(=O)c2ccc(OCc3nc(-c4ccccc4)oc3C)cc2)c(O[C@H](C)C(=O)O)c1 | 122 to 123 °C
CCCCc1nc2ccsc2n1Cc1ccc(-c2ccccc2C(=O)O)cc1 | 203 °C
CCCc1c(C(C)C)nn2ccccc12 | 41 to 42 °C
O=c1[nH]c2ccccc2c2ccnn12 | 253 to 254 °C
O=C(Oc1ccccc1)N1CCC2(CC1)SC(c1ccc(Cl)cc1)c1ccccc12 (stereo not given) | 211 to 212 °C
COc1cc(C)c2c(c1OC)CCCC2=O | 58 to 62 °C
CC(C)(CC(O)(C(=O)Nc1ccc2c(c1Br)COC2=O)C(F)(F)F)c1ccccc1 (stereo not given) | 187 to 194 °C
O=C(Nc1ccc(CCc2ccc(O)c(O)c2)cc1)C(=O)C1=C(O)c2ccccc2SC1 | 166 to 167 °C
CN1CCN(c2ccc(Br)c3c2C[C@H](NC(=O)c2ccc(C(F)(F)F)cc2)CC3)CC1 | 229 to 230 °C
c1ccc(COc2ccc(OCC3CO3)cc2)cc1 (stereo not given) | 68 °C
CCOC(=O)C(C)Oc1ccc(-c2nc(-c3ccc(OC(C)C(=O)OCC)cc3O)nc(-c3ccc(OC(C)C(=O)OCC)cc3O)n2)c(O)c1 (stereo not given) | 115 to 120 °C
CC(C)(C)OC(=O)NCCc1ccnc(-c2nc(=O)c3ccccc3s2)c1 | 160 to 161 °C
CCOC(=O)c1c(-c2ccc(F)cc2)nc(-c2ccccc2)nc1C(C)C | 97 to 99 °C
CC(C)(C)C(=O)c1c(CC(C)(C)C(=O)O)n(Cc2ccc(Cl)cc2)c2ccc(OCc3ccc4occc4n3)cc12 | 160 °C
COC(=O)c1cc(C(=O)c2c(C)c(NC(=O)c3cccc(O)c3)c3ccccn23)ccc1N | 278 °C
CC1(C(=O)C(C(O)C(Cl)(Cl)CCl)n2cncn2)CC1 (stereo not given) | 182 to 186 °C
CCCC(CO)n1cnc(C(N)=O)c1 (stereo not given) | 160 °C
COC(=O)CS(=O)(=O)C1CCCCC1Sc1cc(C(C)(C)C)c(O)c(C(C)(C)C)c1 (stereo not given) | 93 °C
N#CCc1cccc([N+](=O)[O-])c1[N+](=O)[O-] | 88 to 90 °C
CC(C)c1nn2ccccc2c1C(O)C(C)(C)C (stereo not given) | 95 °C
Cc1c(F)c([N+](=O)[O-])cc([N+](=O)[O-])c1F | 81 to 82 °C
CC(=O)Oc1c(C)cc(N(C)C(=O)OC(C)(C)C)c(C)c1C | 103 to 104 °C

Structure (SMILES) | melting point
CCCCCC(=O)OCCCOc1ccc(Nc2ccccc2)cc1 | 50 to 51 °C
CC(C)(C)c1ccc(CN(O)Cc2ccc(C(C)(C)C)cc2)cc1 | 108 to 110 °C
Cc1ccc(=Nc2nnc(C(F)(F)F)s2)n(-c2cccc(C(F)(F)F)c2)c1 | 179 °C
CN(C)c1nc(N)c(-c2nc(N)no2)nc1Cl | 210 to 211 °C
CC1(C)C(=O)Nc2cc3[nH]c(-c4cccs4)nc3cc21 | 332 to 336 °C
CCC(C)(Oc1ccc(OCc2cc(-c3ccc(OCc4ccccc4)cc3)no2)cc1)C(=O)O (stereo not given) | 132 to 134 °C
Cc1cc(Nc2cc(-c3ccccc3)nc3ccccc23)[nH]n1 | 242 to 244 °C
c1ccc2sc(SSN3CCCCCC3)nc2c1 | 65 to 67 °C
O=S(=O)(c1ccc(Cl)cc1)c1ccc(-c2ccc(O)cc2)cc1 | 268 to 270 °C
Cn1c(=O)c2c(ncn2Cc2noc(CCO)n2)n(C)c1=O | 145 °C
COC(=O)c1ccccc1S(=O)(=O)NC(=O)Nc1ncccn1 | 188 to 192 °C
O=C(CCCCl)c1ccc2c(c1)Cc1cc(C(=O)CCCCl)ccc1O2 | 131 to 132 °C
C[C@H](Cc1c[nH]c2c(OCc3ccccc3)cccc12)NC(=O)OC(C)(C)C | 94 to 95 °C
O=C(O)C=Cc1cn(-c2ccccc2)nc1-c1ccc(Cl)cc1 | 227 to 228 °C
COC(=O)COc1ccc(C=Cc2nc(-c3ccccc3)c(-c3ccccc3)o2)cc1 | 122 to 123 °C
CCNC(=O)c1c(Cl)cccc1[Si](C)(C)C(C)C | 98 to 100 °C
CC(=O)NC1CCc2c([nH]c3cc(O)ccc23)C1 (stereo not given) | 245 to 246 °C
CCOCc1cc2cc(Br)ccc2oc1=Nc1ccc(F)cc1 | 153 to 154 °C
CS(=O)(=O)Nc1cc2occ(S(C)(=O)=O)c(=O)c2cc1Oc1ccccc1 | > 250 °C
O=c1c2c(Cc3ccc(O)cc3)n[nH]c2c2cccnc2n1-c1ccccc1 | 316 to 317 °C
CC12CCC(=O)C=C1CCC1C2CCC2(C)C(=CCC(=O)O)CCC12 (stereo not given) | 266 to 270 °C
CSc1ccc([C@@H](CC2CCCC2)C(=O)O)cc1Cl | 117 to 119 °C
CS(=O)(=O)c1ccc(-c2cnn(Cc3ncc(Cl)s3)c(=O)c2-c2ccc(F)cc2)cc1 | 185 to 186 °C
CC(=O)NC1CCCc2sc(C(C)=O)cc21 (stereo not given) | 168 to 172 °C
COC(=O)c1nn(Cc2ccccc2)c2c1CCc1cc(OCc3ccccc3)ccc1-2 | 168 to 169 °C

Structure (SMILES) | melting point
CC(=O)Nc1ccc(-c2cc(-c3nc4ccccc4c(=O)n3-c3ccccc3)sc2N2CCOCC2)cc1 | > 275 °C
CC(=O)Nc1ccc2c3c(cccc13)S(=O)(=O)N2CCCCl | 205 °C
CCCS(=O)(=O)Nc1ccc2c(c1)S(=O)(=O)C=C(c1c(O)c3cc(F)ccc3n(CCC3CC3)c1=O)N2 | 145 to 150 °C
COc1nc(OC)nc(-n2c(N)nc3cc(Cl)ccc32)n1 | 293 to 296 °C
COC(=O)c1ccc(Cl)c(Cl)c1NS(C)(=O)=O | 100 to 102 °C
Cc1cccc2c1n(CCS(C)(=O)=O)c(=O)n2C(=O)N[C@H](C(=O)N(C)C)C(C)(C)C | 191 °C
Fc1ccc(-c2cccc(F)n2)cc1 | 34 °C
C[C@@H]1Cc2ccsc2[C@H](C)N1CCNC(=O)c1ccccc1N (relative stereo) | 89 to 94 °C
O=C(O)c1cn(C2CC2)c2c(F)c(F)c(Cl)cc2c1=O | 200 to 204 °C
O=c1c2c(nc3ccc(Cl)cn13)C(=Cc1ccccc1)CC2 | 212 to 213 °C
Nc1cnc2cccnc2c1Cl | 188 to 190 °C
O=C(CCCCCl)Nc1nc2ccccc2[nH]1 | 161 to 163 °C
O=C(NC(=O)N(SC(Cl)(Cl)Cl)c1ccc(Oc2ccc(C(F)(F)F)cc2Cl)cc1)c1ccccc1Cl | 68 to 71 °C
O=c1c(OCCCCl)c(-c2ccc(OCc3ccccc3)c(OCc3ccccc3)c2)oc2cc(OCc3ccccc3)ccc12 | 136 to 137 °C
CCOc1cc(N(Cc2cncnc2)c2ccc(C(=O)O)cc2)ccc1OC(F)F | 165 to 166 °C
CS(=O)(=O)c1ccc(-c2nn(CCc3ccccc3)cc2-c2ccc(F)cc2)cc1 | 170 to 171 °C
Cc1cccc(C)c1NCC(=O)c1ccc(Cl)cc1 | 82 °C
COc1ccc(NC(C)=C(C#N)C#N)cc1 | 254 to 255 °C
NS(=O)(=O)c1ccc(CC(=O)C=CC(=O)O)cc1 | 180 to 181 °C
CCCCCc1c(-c2ccc3c(Br)c(OCC#N)ccc3c2)oc2ccccc12 | 111 to 113 °C
COc1c(F)cc(-c2cncc(OC3SCC(OC(C)=O)C(OC(C)=O)C3OC(C)=O)c2)cc1F (stereo not given) | 203 °C
O=S(=O)(CCO)Nc1cc(C(c2cc(F)ccc2F)S(=O)(=O)c2ccc(Cl)cc2)c(Cl)cn1 (stereo not given) | 155 to 158 °C
C=CCc1cc2c(cc1O)CCC(=O)N2CC=Cc1ccccc1 | 199 to 203 °C
Nc1ccc(C(=O)NCC(=O)O)c(F)c1 | 190 to 194 °C
CCOC(=O)C=CC(=O)c1ccc(Oc2ccc(Cl)cc2)cc1 | 57 to 58 °C
